The test has as its target INO80 (Saccharomyces cerevisiae, UniProt P53115). Kind of test: real-time fluorescent phosphate-release ATPase assay. The test is classed as biochemical. Particulars: 0.1 nM INO80; with or without 15 nM nucleosomes or DNA; 23 °C.

Regarding `Nc1ncnc2c1ncn2[C@@H]1O[C@H](COP(=O)(O)OP(=O)(O)OP(=O)(O)O)[C@@H](O)[C@H]1O` [ATP], the KM entry is “KM for the ATPase of SWR1, INO80, and SWI/SNF in the presence or absence”.

The values above are taken from paper PMC7251641 (Cell, 2010).
